According to patent EP4122466A1 (priority 2021, dated 2023):
“Also recorded” adds a separate entry of the source.

Experiments:
SARS-CoV-2 pseudovirus = type: cell-based
VSV.G virus = type: cell-based
VSV*ΔG(Luc)-S virus = test: organism not typed; type: cell-based
SARS-CoV-2 = conditions: cited from earlier work
[1] = tested on: Human Lung Tissue (HTL) cells

| Structure (SMILES) | inhibition of virus infection (SARS-CoV-2 pseudovirus) | inhibition of the VSV.G virus (VSV.G virus) | decrease in infection rate (VSV*ΔG(Luc)-S virus) | infection rate (VSV*ΔG(Luc)-S virus) [%] | in vitro activity against SARS-CoV-2 (SARS-CoV-2) | EC50 (VSV*ΔG(Luc)-S virus) [µM] | cell death [1] |
| --- | --- | --- | --- | --- | --- | --- | --- |
| Cc1cccc(/C=N/Nc2cc(N3CCOCC3)nc(OCCc3ccccn3)n2)c1 [apilimod] | dose-dependent inhibition of virus infection | partially inhibit | lower decrease in infection rate | 50 |  |  |  |
| Cc1cn(-c2cc(NC(=O)c3ccc(C)c(Nc4nccc(-c5cccnc5)n4)c3)cc(C(F)(F)F)c2)cn1 [nilotinib] | dose-dependent inhibition of virus infection | partially inhibit |  |  | did show in vitro antiviral effect | > 15 |  |
| Cc1ccc(NC(=O)c2ccc(CN3CCN(C)CC3)cc2)cc1Nc1nccc(-c2cccnc2)n1 [imatinib] |  |  |  |  | do not show antiviral efficacy |  |  |
| CN1CCN(c2ccc(C(=O)Nc3n[nH]c4ccc(Cc5cc(F)cc(F)c5)cc34)c(NC3CCOCC3)c2)CC1 [entrectinib] | dose-dependent inhibition of virus infection | partially inhibit; also recorded: demonstrated an antiviral effect |  |  |  | < 1 | without inducing significant cell death |
